Usually melting point stands for the temperature of the solid-liquid transition.

Starred links: 1 amine or outer side, 2 acyl side, 3 side chain; linkers in the order of their positions; H or OH if unused. Residues, ends and D or L forms follow the SMILES beside them. Glutaryl = O=C(CCCC(=O)[*:2])[*:1] Some results are limits rather than exact numbers.

The values that follow come from a melting point compilation (Tetko et al.; mined from patent text by program, amines drawn as free bases though some values may be those of a salt).

Compound `Nc1ccc(Cl)cc1Cc1ccccc1Cl` yielded a melting point of 64 to 65 °C.
`Cc1c(CCc2ccccc2)c(=O)oc2cc(OCC#N)cc(OCC#N)c12` returned a melting point of 179 to 183 °C.
`COC(=O)CCCC(=O)N(CCc1c[nH]c2ccccc12)Cc1ccccc1` registered a melting point of 107 to 108 °C.
The value for `CC(C)c1[nH]nc2c1C(=O)c1c(NC(=O)CN3CCC(C(N)=O)CC3)cccc1-2` was 224 to 225 °C.
As for `CC(C)CCC1(CCc2ccccc2)CC(O)=CC(=O)O1` (stereo not drawn), the melting point is 99 to 100 °C.
`Cc1ccnc(N2CCN(CCc3c(C)n4c5c(cc([N+](=O)[O-])cc35)CCC4)CC2)c1` displayed a melting point of 230 °C.
For the compound `COC(=O)C(C)C(=O)Nc1ccc(OCc2cccc(F)c2)cc1` (stereo not drawn), the melting point was determined as 119 °C.
The figure for `OC(CCl)(Cc1c(Cl)cccc1Cl)c1ccc(Cl)cc1Cl` (stereo not drawn) is 117 °C; for `CCNC(=O)C1CCCN1C(=O)C(C)NC(=O)C(C)NC(=O)CCCC(=O)O` (stereo not drawn) (Glutaryl-Ala-Ala-Pro-NHEt; configuration not given here) it is 154 to 156 °C.
Take `COC(=O)C(O)c1cc2c(cc1Cl)OCO2` (stereo not drawn): the melting point was 66 to 68 °C.
The value for `CCCCOc1cc(/C=C(\OCC)C(=O)O)ccc1OCCc1ccc(OS(=O)(=O)CCCC)c(Cl)c1` was 80 °C.
The figure for `CC#CCOc1ccc(S(=O)(=O)CNCC(C(=O)NO)N2CCN(S(C)(=O)=O)CC2)cc1` (stereo not drawn) is 86 °C; for `Nc1ccc(F)c(CO)c1` it is 80 to 84 °C.
`CC(=O)N1CCCC(=O)c2cc(Cl)c(Cl)cc2CCC1=O`: the melting point was in the range of 163 to 165 °C.
The compound `CCC1c2cccn2-c2ccc(Cl)cc2N1S(=O)(=O)c1ccc(O)c(C)c1` (stereo not drawn) gave a melting point of 170 to 172 °C.
The value for `Cc1nnc2c3c(c(Cl)nn12)C1CCC3CC1` was 178 to 179 °C.
The figure for `CCCCCC(=O)c1c(CSc2nccn2C)nc2cc(OC)c(OC)cc2c1-c1ccc(OC)c(OC)c1` is 128 to 129 °C; for `NN1CCN(CC(O)c2c[nH]c3ccccc23)CC1` (stereo not drawn) it is 174 to 177 °C.
On to `NC(=O)N(O)Cc1ccco1`, for which the melting point fell in the range of 128 to 131 °C.
Compound `Cc1cccc(C)c1NC(=O)Nc1ccc(CC(=O)NC(CC(C)C)c2ncc(CCC(=O)O)s2)cc1` (stereo not drawn) showed a melting point of 125 to 127 °C.
In the case of `COC(=O)c1ccc(OC)cc1C(C)=O`, the melting point fell in the range of 48 to 50 °C.
The figure for `COc1ccc(-c2nnsc2-c2ccc(OC)cc2)cc1` is 80 to 82 °C; for `CCNC(=O)CNC(=S)c1cccnc1` it is 136 to 138 °C; for `CCC(CC)Nc1c([N+](=O)[O-])cc(C#N)c(COC)c1[N+](=O)[O-]` it is 46 to 49 °C.
`CCn1nc(C)c(N)c1C(N)=O`: the melting point was in the range of 143 to 145 °C.
In the case of `CC(C)(C)OC(=O)C1CCCC(c2ccccc2)N1` (stereo not drawn), the melting point was determined as 68 °C.
Take `Cc1ccc(CC2(O)CCN(CC3Cc4cc(O)ccc4N3)CC2)cc1` (racemic): the melting point fell in the range of 90 to 94 °C.
Take `COc1cc2c(cc1OC)C(=Cc1ccccc1[N+](=O)[O-])C(=O)CC2`: the melting point lay within 63 to 64 °C.
`CN(C)CCc1cccc(OCCCNc2nc(N)nn2C)c1` showed a melting point of 81 to 82 °C.
The figure for `CCOC(=O)c1c(C(F)(F)F)nc(C(F)(F)F)c(C(=O)OCC)c1OC` is 46.5 to 47.5 °C; for `CC(C)c1c(C=CC2CC(O)CC(O)O2)n(-c2ccc(Cl)cc2)c(=O)c2ccccc12` (mixture of isomers) it is 181 to 185 °C; for `COc1c(F)cc(-c2cncc(OC3SCC(OC(C)=O)C(OC(C)=O)C3OC(C)=O)c2)cc1F` (stereo not drawn) it is 203 °C.
`COC(=O)CCn1c(=O)n2cc(C)cc2c2ccccc21` showed a melting point of 89 to 91 °C.
The figure for `COc1cccc(OC)c1-c1cc(C(=O)NCC(=O)O)nn1-c1ccc(C(=O)N(C)CCCN(C)C)cc1C(C)C` is 160 °C; for `CCNc1cc(NS(=O)(=O)c2ccc(N)cc2)nc(NC(C)C)n1` it is 266 to 267 °C; for `CC(=O)Nc1nc(-c2ccccc2)c(-c2ccnc(Nc3ccccc3)n2)s1` it is over 260 °C.
The figure for `CC(=O)OC1CSC(Oc2ccc3oc(C)nc3c2)C(OC(C)=O)C1OC(C)=O` (stereo not drawn) is 168 °C; for `O=c1[nH]c2c(Cl)cc(Cl)cc2c2nc(-c3ccccc3)nn12` it is 309 to 311 °C; for `COc1cc(C)c(C=CC(C)=CC=CC(C)=CC(=O)O)c(C)c1` it is 207 to 208 °C.
The value for `CC1=C(c2ccc(O)cc2)C(=O)c2cc(O)c(O)cc21` was 226 to 229 °C.
Consider `CC(=O)Nc1cccc(C)n1`, for which the melting point worked out at 87 °C.
The figure for `CCOc1ccc(Nc2cccc3ccccc23)cc1` is 73 to 75 °C; for `CC(C)(C)OC(=O)NOCC(O)c1ccccc1` (stereo not drawn) it is 97 to 99 °C; for `Cc1ccc2sc3ncc(C(=O)Nc4nnn[nH]4)c(=O)n3c2c1` it is over 300 °C.
The value for `CCOc1nn(-c2cc(C(F)(F)F)ccn2)cc1CCCO` was 73 to 74 °C.
With `O=C(Oc1ccccc1)OC1CN(C(=O)Oc2ccccc2)CCC1c1ccccc1` (stereo not drawn), the melting point is 153 to 154 °C.
The compound `COC(=O)C1=CC(=O)CCC1c1ccccc1` (racemic) came in with a melting point of 66 °C.
The figure for `O=C(CNC(=O)c1ccc(S(=O)(=O)F)cc1)Nc1cccc(-c2cccc3c2/C(=C/c2ccc[nH]2)C(=O)N3)c1` is 248 to 250 °C; for `COCOc1c(OC)cc(C(S)CS)cc1OC` (stereo not drawn) it is 84 to 85 °C; for `CCCCc1nc(Cl)c(C(=O)O)n1Cc1ccc2oc(-c3ccccc3C(=O)OCC)c(Br)c2c1` it is 148 to 150 °C.
The figure for `O=C(O)c1cn(CCc2cccc(C(F)(F)F)c2)c2cc(C3CC3)nn2c1=O` is 200 to 205 °C; for `CCOC(=O)c1cnc2snc(C)c2c1N(Cc1cccnc1)S(=O)(=O)c1ccc(OC)cc1` it is 142 to 144 °C; for `NS(=O)(=O)C=C(c1ccccc1)c1ccccc1` it is 134 to 135 °C.
As for `Cn1ccnc1-c1ccc(C(=O)CN=[N+]=[N-])cc1`, the melting point was over 250 °C.
Take `CC(=O)OCCOCn1cc(C)c(=O)[nH]c1=O`: the melting point lay in the range of 105 to 107 °C.
`Cc1cc2c(C)cc(-c3ccccc3Cl)nc2nc1-c1ccccc1` displayed a melting point of 151 to 153 °C.
The figure for `Cc1cc(F)ccc1-c1nc(N[C@H]2CC[C@H](O)CC2)nc2c1ccc(=O)n2-c1ccccc1F` is 148 to 151 °C.
The value for `CC(C)(C)c1ccc(CCCC(=O)CC2CCCCC2)cc1NC(=O)CC1c2ccccc2Oc2ccccc21` was 193 to 194 °C.
The value for `CC1(C)NC(=O)N(CC(CS(=O)(=O)C2(C(F)(F)F)C=CC(c3ccccc3)=CC2)N(O)C=O)C1=O` (stereo not drawn) was 206 °C; that for `Cc1ccc(-c2ncn3c2CN(N(C)C)c2ccccc2-3)cc1` was 204 to 205 °C.
In turn, `O=c1[nH]c2ncc(-c3ccc(O)cc3)nc2n1CC1CCOC1` (stereo not drawn) showed a melting point of 256 to 258 °C.
In turn, `COc1ccc2cc(I)sc2c1` registered a melting point of 75 to 77 °C.
The value for `COc1cc(OC)nc(NC(=O)NS(=O)(=O)c2c(C)nsc2OCC(Cl)(Cl)Cl)n1` was 176 to 180 °C; that for `N#Cc1cscc1C#N` was 170 to 171 °C; that for `CCCN(CCC)C(=O)Cn1c(-c2ccc(F)cc2)nc2cccnc21` was 135 to 136 °C.
The value for `Nc1ccc(S(=O)(=O)c2cc(N)nc(Br)c2)cc1` was 204 to 205 °C; that for `COC(=O)[C@@H]1CCCCN1S(=O)(=O)c1ccc(Cl)c(COc2cccc3c(-n4ccnc4)cc(C)nc23)c1Cl` was 81 °C; that for `CNCc1c(C)c([N+](=O)[O-])cc2[nH]c(=O)c(=O)[nH]c12` was 260 to 261 °C.
Compound `CCN(CC)C(=O)C(C)c1cc(-c2ccccc2)nc2ccccc12` (stereo not drawn) showed a melting point of 132 °C.
Turning to `O=C(CCc1cnoc1-c1ccccc1)Nc1ccc(-n2ccnc2)cc1`, the melting point was 176 to 177 °C.
The figure for `O=C(NC(=O)c1c(Cl)cccc1Cl)Nc1ccc(Br)cn1` is 228 to 230 °C; for `Cc1ccc(-c2nc(COc3ccc(CCCn4ccnc4)cc3)co2)s1` it is 83 to 84 °C.
The value for `Cc1ccc(S(=O)(=O)N2[C@@H](c3nnn(C)n3)CC[C@H]2c2ccc(F)cc2)cc1` (racemic) was 150 °C.
The value for `CC(=O)[C@H]1C[C@H](C(=O)OC(C)(C)C)N(C(=O)CNC(=O)Nc2cccc(C(=O)O)c2)[C@@H]1c1ccccc1` (racemic) was 145 °C; that for `O=C1CNC(=O)N1c1ccc([N+](=O)[O-])cc1` was 250 to 251 °C.
For `COc1ccc2cc(-n3c(C)nnc3C)cc(C)c2n1`, the melting point is 211 to 213 °C.
The value for `CC1=Nc2ccccc2CC(c2cccs2)N1C` (stereo not drawn) was 106 to 108 °C; that for `CC(C)(C)OC(=O)NOCC(=O)NNC(=O)c1cc(S(=O)(=O)O)cc(O)c1O` was 148 to 150 °C.
The figure for `Cc1cc(C)nc(NC(=O)Cc2cccn2C)c1` is 85 °C; for `O=c1[nH]c(C(F)(F)F)c(Br)c(=O)n1-c1c(Cl)cc(Cl)cc1Cl` it is 219 to 222 °C.
In turn, `COCCN(C1CCS(=O)(=O)C1)S(=O)(=O)c1ccc(Nc2nccc(Nc3ccc(F)cc3)n2)cc1` (stereo not drawn) had a melting point of 150 °C.
The figure for `CN(C)C[C@@H]1C[C@H]1c1c[nH]c2ccc(C#N)cc12` (relative stereo) is 120 to 121 °C; for `CCC(CC)c1ccc(CO)c2nc(Oc3c(C)cc(Cl)cc3Cl)n(C)c12` it is 141 to 143 °C.
The value for `CCOC(=O)Cc1c(Cl)cnc2c(NC(=O)c3c(Cl)cccc3Cl)cccc12` was 161 °C; that for `Brc1cnc(-c2ccc(OCc3ccccc3)cc2)nc1` was 153 to 155 °C.
The figure for `O=C1NCCc2ccc(OCCCCN3CCN(c4cccc(Cl)c4Cl)CC3)nc2N1` is 197 to 199 °C; for `Fc1ccc2[nH]cc(C3CCC4(CC3)OCCO4)c2c1` it is 183 to 185 °C; for `CCCC(C=NNC(C)=O)c1ccc(Cl)cc1Cl` (stereo not drawn) it is 145 to 147 °C.
